The values below come from patent US11752215B2, “Targeting tumor cells with chemotherapeutic agents conjugated to anti-matriptase antibodies by in vivo cleavable linking moieties” (priority 2016, dated 2023).

Series [1] relates to bone marrow-derived MSCs (lack matriptase expression). Kind of series: Tolerance of bone marrow-derived mesenchymal stromal cells (cell count). The format is cell-based, human. The note with it: 5 nM, 4 days. As to the method: Cell numbers were determined by Vi-Cell counter.
Human bone marrow-derived MSCs, which lack matriptase expression, were used as a control to determine the cytotoxic selectivity of M24-DOX as shown in FIG. 4 where bone marrow-derived mesenchymal stromal cells (5×10^4/well, 24-well plates) were treated with M24-DOX or free DOX at varying concentrations for 4 days. Cell numbers were determined by Vi-Cell counter.

Series [2] has as its system breast tumors (MDA-MB468). In words: Human breast xenograft tumor model, M69-DOX. The format is in vivo, NOD/SCID mice. The note with it: 2 mg/kg. As to the method: FIG. 8 illustrates the M69-DOX conjugate targeting active matriptase inhibited breast tumor growth in vivo, comparing treatment by M69-DOX at 10 mg/Kg and 20 mg/Kg doses with treatment by DOX at 2 mg/Kg dose and the control.
FIG. 9 illustrates reduction of the tumor weight by M69-DOX at 10 mg/Kg and 20 mg/Kg doses in comparison with treatment by DOX at 2 mg/Kg dose and the control.
To assess the efficacy of M69-DOX to suppress tumor growth in vivo, a human breast xenograft tumor model was used. NOD/SCID mice bearing breast tumors (MDA-MB468) were treated twice weekly with M69-DOX at either 20 or 10 mg/kg, as well as treated with DOX at 2 mg/kg. […] As a single mAb was attached with 7 molecules of DOX, a dose at 10 mg/kg of M69-DOX is equivalent to […] of DOX administered.
Reduced Weights of Tumor Masses in Mice Treated with M69-DOX. At the end of the treatment course, the tumor masses were collected from the experimental mice, and were weighed. The average weights of tumors from the groups treated with M69-DOX at either dose as well as treated with DOX were reduced to about 50% of the one from the untreated control group (FIG. 9). Significant reduction in tumor weights by M69-DOX further confirms the efficacy of site-directed delivery of DOX to tumor cells expressing activated matriptase.

The next series has as its system MM cells. In words: MM cell proliferation, DOX-conjugates alone and combined with thalidomide. The format is cell-based. The note with it: thalidomide alone. From the text: FIGS. 6A and B illustrate that thalidomide sensitizes MM cells to M69-DOX, but not M24-DOX: (A) comparison of treatment of MM cells by M69-DOX alone with the M69-DOX/thalidomide combination treatment; and (B) comparison of treatment of MM cells by M24-DOX alone with the M24-DOX/thalidomide combination treatment.
Thalidomide is a therapeutic for multiple myeloma treatment, and the combination of thalidomide and dexamethasone is one of the most common regimens for treatment of patients with multiple myeloma, with an response rate of up to 60-70% (Denz, U., Eur. J. Cancer., 2006, 42:1591-1600; Gieseler, F., et al., Thromb. Haemost., 2008, 99: 1001-1007). The efficacy of both DOX-conjugates in combination with current MM therapeutics such as thalidomide was tested.

The next series has as its system matriptase. Kind of series: Matriptase activation in MM cells (Western analysis with mAb M69). The format is cell-based, human. The note with it: 24-hour treatment, 50 μM. As to the method: FIG. 5 illustrates activation of matriptase in MM cells induced by thalidomide. MM cells (MM.1S) were treated with varying concentrations of thalidomide as indicated for 24 hours followed by Western analyses to detect the activation of matriptase using a specific monoclonal antibody (M69) to the active form of the enzyme. […] GAPDH served as control.
FIG. 7 illustrates activation of matriptase in MM cells induced by thalidomide. MM cells (MM.1S) were treated with varying concentrations of thalidomide as indicated for 24 hours followed by Western analyses to detect the activation of matriptase using a specific monoclonal antibody (M69) to the active form of the enzyme. […] GAPDH served as control.
To examine the increase in cytotoxicity that resulted with the thalidomide and M69-DOX conjugate we measured the effect of thalidomide on expression of activated matriptase.

The test system of another series is PC-3 prostate carcinoma. The note with it: PC-3 xenograft; cited from earlier work.

Entries after “also recorded” stand apart in the source; their conditions may differ.

Take `COc1cccc2c1C(=O)c1c(O)c3c(c(O)c1C2=O)C[C@@](O)(C(=O)CO)C[C@@H]3OC1CC(N)C(O)C(C)O1` (stereo partly drawn) [DOX, (8S,10S)-10-(4-amino-5-hydroxy-6-methyl-tetrahydro-2H-pyran-2-yloxy)-6,8,11-trihydroxy-8-(2-hydroxyacetyl)-1-methoxy-7,8,9,10-tetrahydrotetracene-5,12-dione]: in series [1], the “effect on MSC proliferation” value is reported as “significantly inhibit cell proliferation”. The tumor growth result in series [2] was “significantly abolished”. Besides, the “average weights of tumors relative to untreated control group” value in series [2] (end of treatment) is listed as “about 50%”.

Take `O=C1CCC(N2C(=O)c3ccccc3C2=O)C(=O)N1` (stereo not drawn) [thalidomide]: the “effect on MM cell proliferation” value with MM cells was “no effect on MM cell proliferation; also recorded: little effect on the cell proliferation of MM cells”. Further, the “activation of matriptase in MM cells” value in the series with matriptase is “markedly enhanced”.

On to ecotin: matriptase inhibitor, for which the “tumor growth and metastasis formation” value with PC-3 prostate carcinoma was “Reduced tumor growth and metastasis formation”.
